System: Hedgehog signaling pathway
Assay: Gli-Luc luciferase reporter gene assay in C3H10T1/2/Gli-Luc cells under Shh-N stimulation
Assay type: cell-based
Details: Mus musculus, C3H 10T1/2, 24 h, luciferase RLU, read-out: biological activity: IC50 of the inhibitory activities of compounds on the hedgehog pathway
Method in brief: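 C3H10T1/2 cells stably carrying a Gli-responsive luciferase reporter were stimulated with 30 nM Shh-N conditioned medium plus compound (7-point dilutions, duplicate) for 24 h at 37 °C. Luciferase luminescence read from lysates; IC50 by sigmoidal fit of RLU versus log concentration.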

Row | IC50 [nM] | Compound
1 | 500 to 1000 | Cc1cn(-c2ccc(N3C[C@@H](C)O[C@@H](C)C3)cc2)c(=O)c2nccc(-c3ccc(C#N)cc3)c12 [Embodiment 85, 4-(7-(4-((2S,6R)-2,6-dimethylmorpholino)phenyl)-5-methyl-8-oxo-7,8-dihydro-1,7-naphthyridin-4-yl)benzonitrile]
2 | ≤ 50 | COc1c(N2CCN(c3ccc(C(C)(C)O)cn3)CC2)cnc2c(-c3ccc(C#N)cc3)cccc12 [Embodiment 220, 4-(3-(4-(5-(2-hydroxypropan-2-yl)pyridin-2-yl)piperazin-1-yl)-4-methoxyquinolin-8-yl)benzonitrile]
3 | ≤ 50 | CC(C)(O)c1ccc(N2CCN(c3cnc4c(-c5ccc(C#N)cc5)cccc4c3C3CC3)CC2)nc1 [Embodiment 224]
4 | ≤ 50 | COc1c(-c2ccc(N3C[C@@H](C)N(C(=O)c4ncc[nH]4)[C@@H](C)C3)cc2)cnc2c(-c3ccc(C#N)cc3)cccc12 [Embodiment 187]
5 | 100 to 500 | CC(C)(O)c1ccc(N2CC3(C2)CN(c2cnc4c(-c5ccc(C#N)cc5)cccc4c2C2CC2)C3)nc1 [Embodiment 255, 4-(4-cyclopropyl-3-(6-(5-(2-hydroxypropan-2-yl)pyridin-2-yl)-2,6-diazaspiro[3.3]heptan-2-yl)quinolin-8-yl)benzonitrile]
6 | ≤ 50 | Cc1cn(-c2ccc(N3CCN4C(=O)CC[C@H]4C3)cc2)c(=O)c2cccc(-c3ccc(C#N)cc3)c12 [Embodiment 40, (S)-4-(4-methyl-1-oxo-2-(4-(6-oxo-hexahydropyrrolo[1,2-a]pyrazin-2(1H)-yl)phenyl)-1,2-dihydroisoquinolin-5-yl)benzonitrile]
7 | 100 to 500 | Cc1cn(-c2ccc(N3CC(C)N(S(=O)(=O)c4ccccc4)C(C)C3)cc2)c(=O)c2cccc(-c3ccc(C#N)cc3)c12 (stereo not shown) [Embodiment 32]
8 | ≤ 50 | COc1c(-c2ccc(N3C[C@@H](C)O[C@@H](C)C3)cc2)cnc2c(-c3ccc(C#N)cc3)cccc12 [Embodiment 88, 4-(3-(4-((2S,6R)-2,6-dimethylmorpholino)phenyl)-4-methoxyquinolin-8-yl) benzonitrile]
9 | ≤ 50 | COc1c(-c2ccc(N3C[C@@H](C(C)(C)O)O[C@@H](C)C3)cc2)cnc2c(-c3ccc(C#N)cc3)cccc12 [Embodiment 192, 4-(3-(4-((2S, 6S)-2-(2-hydroxypropan-2-yl)-6-methylmorpholino)phenyl)-4-methoxyquinolin-8-yl)benzonitrile]
10 | 1000 to 5000 | Cc1cn(-c2ccc(N3C[C@@H](C)O[C@@H](C)C3)cc2)c(=O)c2cccc(-c3ccc(Cl)s3)c12 [Embodiment 45]
11 | 50 to 100 | COc1c(-c2ccc(N3CC(C)OC(C)C3)cc2)cnc2c(-c3ccc(C#N)cc3)cc(F)cc12 (stereo not shown) [Embodiment 136, 4-(3-(4-(2,6-dimethylmorpholino)phenyl)-6-fluoro-4-methoxyquinolin-8-yl) benzonitrile]
12 | 100 to 500 | CCC(=O)N1[C@H](C)CN(c2ccc(NC(=O)c3cnc4c(-c5ccc(C#N)cc5)cccc4c3OC)cn2)C[C@@H]1C [Embodiment 245, 8-(4-cyanophenyl)-N-(6-((3S,5R)-3,5-dimethyl-4-propionylpiperazin-1-yl)pyridin-3-yl)-4-methoxyquinoline-3-carboxamide]
13 | ≤ 50 | Cc1c(-c2ccc(N3C[C@@H](C)O[C@@H](C)C3)nc2)cnc2c(-c3ccc(C#N)cc3)cccc12 [Embodiment 132, 4-(3-(6-((2S,6R)-2,6-dimethylmorpholino)pyridin-3-yl)-4-methylquinolin-8-yl) benzonitrile]
14 | ≤ 50 | COc1c(-c2cnc(N3C[C@@H](C)O[C@@H](C)C3)nc2)cnc2c(-c3ccc(C#N)cc3)cccc12 [Embodiment 176, 4-(3-(2-((2S,6R)-2,6-dimethylmorpholino)pyrimidin-5-yl)-4-methoxyquinolin-8-yl) benzonitrile]
15 | 1000 to 5000 | Cc1cn(-c2ccc(N3CCOC(CN(C)C)C3)cc2)c(=O)c2cccc(-c3ccc(C#N)cc3)c12 (stereo not shown) [Embodiment 9]
16 | ≤ 50 | COc1c(-c2ccc(N3C[C@@H](C)O[C@@H](C)C3)cc2)cnc2c(-c3ccc(C#N)cc3C)cccc12 [Embodiment 105]
17 | 500 to 1000 | Cc1cn(-c2ccc(N3C[C@@H](C)O[C@@H](C)C3)cc2)c(=O)c2cccc(-c3ccc(C#N)s3)c12 [Embodiment 44]
18 | 1000 to 5000 | COc1c(-c2ccc(N3C[C@@H](C)O[C@@H](C)C3)cc2)cnc2c(-c3nc4ccccc4[nH]3)cccc12 [Embodiment 114, (2S,6R)-4-(4-(8-(1H-benzo[d]imidazol-2-yl)-4-methoxyquinolin-3-yl)phenyl)-2,6-dimethylmorpholine]
19 | 500 to 1000 | Cc1cn(-c2ccc(N3CC4CCC(C3)O4)cc2)c(=O)c2cccc(-c3ccc(C#N)cc3)c12 [Embodiment 7]
20 | ≤ 50 | COc1c(-c2ccc(N3C[C@@H](C)N(c4nccs4)[C@@H](C)C3)nc2)cnc2c(-c3ccc(C#N)cc3)cccc12 [Embodiment 206, 4-(3-(6-((3S,5R)-3,5-dimethyl-4-(thiazol-2-yl)piperazin-1-yl)pyridin-3-yl)-4-methoxyquinolin-8-yl)benzonitrile]
21 | 1000 to 5000 | C[C@@H]1CN(c2ccc(-n3ccc4c(-c5ccc(OC(F)(F)F)cc5)cccc4c3=O)cn2)C[C@H](C)O1 [Embodiment 72]
22 | ≤ 50 | COc1c(N2CC[C@@H](N3C[C@@H](C)O[C@@H](C)C3)[C@@H](F)C2)cnc2c(-c3ccc(C#N)cc3)cccc12 [Embodiment 233, 4-(3-(4-(2,6-dimethylmorpholino-4-yl)-3-fluoropiperidin-1-yl)-4-methoxyquinolin-8-yl)benzonitrile]

Row | IC50 [nM] | Compound
23 | ≤ 50 | COc1c(N2CCN(C(=O)Nc3cccc(C)c3)CC2)cnc2c(-c3ccc(C#N)cc3)cccc12 [Embodiment 211]
24 | 50 to 100 | C[C@@H]1CN(c2ccc(-c3cnc4c(-c5ccc(C#N)cc5)cccc4c3Cl)cc2)C[C@H](C)O1 [Embodiment 118, 4-(4-chloro-3-(4-((2S,6R)-2,6-dimethylmorpholino)phenyl)quinolin-8-yl)benzonitrile]
25 | ≤ 50 | COc1c(-c2ccc(N3C[C@@H](C)O[C@@H](C)C3)cc2)cnc2c(-c3ccc(C#N)cc3)ccc(F)c12 [Embodiment 138]
26 | ≤ 50 | COc1c(-c2ccc(N3C[C@@H](C)N(C(=O)c4ccncc4)[C@@H](C)C3)cc2)cnc2c(-c3ccc(C#N)cc3)cccc12 [Embodiment 201]
27 | 500 to 1000 | COc1c(-c2ccc(N3C[C@@H](C)O[C@@H](C)C3)cc2)cnc2c1CCCC2(O)c1ccc(C#N)cc1 (stereo partly drawn) [Embodiment 156, 4-(3-(4-((2S,6R)-2,6-dimethylmorpholino)phenyl)-8-hydroxy-4-methoxy-5,6,7,8-tetra hydroquinolin-8-yl)benzonitrile]
28 | 100 to 500 | Cc1cn(-c2ccc(N3CC(C)N(Cc4ccccc4)C(C)C3)cc2)c(=O)c2cccc(-c3ccc(C#N)cc3)c12 (stereo not shown) [Embodiment 35]
29 | 100 to 500 | COc1c(-c2ccc(N3C[C@@H](C)O[C@@H](C)C3)nn2)cnc2c(-c3ccc(C#N)cc3)cccc12 [Embodiment 175, 4-(3-(6-((2S,6R)-2,6-dimethylmorpholino)pyridazin-3-yl)-4-methoxyquinolin-8-yl) benzonitrile]
30 | 100 to 500 | Cc1cn(-c2ccc(N3CC(C)N(C(=O)OC(C)C)C(C)C3)cc2)c(=O)c2cccc(-c3ccc(C#N)cc3)c12 (stereo not shown) [Embodiment 29]
31 | 50 to 100 | CCOC(=O)N1[C@H](C)CN(c2ccc(-c3cnc4c(-c5ccc(C#N)cc5)cccc4c3OC)cc2)C[C@@H]1C [Embodiment 183]
32 | 50 to 100 | COc1c(N2CCN(c3ccc(C(C)C)cn3)CC2)cnc2c(-c3ccc(C#N)cc3)cccc12 [Embodiment 270, 4-(3-(4-(5-isopropylpyridin-2-yl)-3-)-4-methoxyquinolin-8-yl) benzonitrile]
33 | 1000 to 5000 | C[C@@H]1CN(c2ccc(-n3ccc4c(-c5ccc(C#N)cc5)cccc4c3=O)cc2C2CC2)C[C@H](C)O1 [Embodiment 80, 4-(2-(3-cyclopropyl-4-((2S,6R)-2,6-dimethylmorpholino)phenyl)-1-oxo-1,2-dihydroisoquinolin-5-yl)benzonitrile]
34 | 100 to 500 | Cc1cn(-c2ccc(N3C[C@H](C)C[C@@H](C)C3)cc2)c(=O)c2cccc(-c3ccc(C#N)cc3)c12 [Embodiment 1, 4-(2-(4-((3R,5R)-3,5-dimethylpiperidin-1-yl)phenyl)-4-methyl-1-oxo-1,2-dihydroisoquinolin-5-yl)benzonitrile]
35 | 100 to 500 | COc1c(-c2ccc(N3C[C@@H](C)O[C@@H](C)C3)cc2)cnc2c(-c3ccncc3)cccc12 [Embodiment 97]
36 | 100 to 500 | COc1c(N2CCN(C(C)=O)CC2)cnc2c(-c3ccc(C#N)cc3)cccc12 [Embodiment 215]
37 | 100 to 500 | COc1c(N2CCC(N3CCCC3)CC2)cnc2c(-c3ccc(C#N)cc3)cccc12 [Embodiment 268, 4-(4-methoxy-3-(4-(pyrrolidin-1-yl)piperidin-1-yl)quinolin-8-yl)benzonitrile]
38 | 100 to 500 | COc1ccc(-c2cccc3c(OC)c(-c4ccc(N5C[C@@H](C)O[C@@H](C)C5)cc4)cnc23)cn1 [Embodiment 100]
39 | 100 to 500 | Cc1cn(-c2ccc(N3C[C@@H](C)O[C@@H](C)C3)cc2)c(=O)c2cccc(-c3ccc(C#N)cc3)c12 [Embodiment 52]
40 | 100 to 500 | C[C@@H]1CN(c2ccc(-c3cnc4c(-c5ccc(C#N)cc5)cccc4c3N3CCC3)cc2)C[C@H](C)O1 [Embodiment 126, 4-(4-(azetidin-1-yl)-3-(4-((2S,6R)-2,6-dimethylmorpholino)phenyl)quinolin-8-yl) benzonitrile]
41 | 100 to 500 | COc1c(-c2ccc(N3C[C@@H](C)O[C@@H](C)C3)cc2)cnc2c(-c3ccc(C#N)cc3)cc(Cl)cc12 [Embodiment 135, 4-(6-chloro-3-(4-((2S,6R)-2,6-dimethylmorpholino)phenyl)-4-methoxyquinolin-8-yl) benzonitrile]
42 | 1000 to 5000 | Cc1cn(-c2ccc(N3C[C@@H](C)O[C@@H](C)C3)cc2)c(=O)c2cccc(-c3cccn3C)c12 [Embodiment 48]
43 | 100 to 500 | CC(C)Oc1c(-c2ccc(N3C[C@@H](C)O[C@@H](C)C3)cc2)cnc2c(-c3ccc(C#N)cc3)cccc12 [Embodiment 144]

Source: US9938292B2 (GUANGDONG ZHONGSHENG PHARMACEUTICAL CO., LTD, priority 2014, dated 2018)
